# Source: patent publication US20250017885A1, “TREATMENT OF INCLUSION BODY MYOSITIS WITH PHENYLBUTYRATE AND MONITORING OF TREATMENT” (University of Kansas, priority 2023, published 2025)
# How the values were obtained:
# [1] = test system: patients with inclusion body myositis; assay: Safety and tolerability of PBA in IBM patients (adverse event reporting, safety laboratory tests); type: in vivo, human; conditions: for Serious events not related to the study drug / Serious adverse events related to the study drug / Safety and tolerability / Safety laboratory tests (ALT, creatinine, creatine kinase, blood counts): IBM patients; for Serious adverse events related to the study drug: 3 gm twice daily for 3 months; for Safety and tolerability: 3 gm twice daily orally for 3 months; for Safety laboratory tests (ALT, creatinine, creatine kinase, blood counts): two subjects had mildly elevated liver enzymes at baseline
# Method: In a study, PBA at a dose of 3 grams (gm) was administered twice daily in patients with inclusion body myositis. In this study, 10 patients received the daily doses of PBA for 3 months after run-up periods of 3 months. […] The study was conducted by monitoring biomarkers and biological indicators in the subjects. One of the biological indicators is mitochondrial membrane potential, and analyzing the biological indicator uses a mitochondrial tracker (e.g., MitoTracker) to monitor mitochondrial membrane potential. […] As such, the biomarkers, including a mitochondrial tracker, allow for monitoring the progress of treatment of IBM in the subject with PBA. Thus, the present invention can use PBA in human subjects to treat inclusion body myositis with a dose of 3 gm twice daily and monitoring biological indicators or other biomarkers to monitor progress of IBM in the subject. Safety and tolerability of PBA in IBM patients were studied, with a run-in period of 3 months without medication. Biomarkers were studied. […] We have previously assayed TDP-43 and its derivative, phosphorylated TDP-43 (pTDP-43) in peripheral blood platelets in our laboratory (Dr. Agbas). TDP43 positive cytoplasmic aggregates have been described in ALS motor neurons and IBM skeletal muscle tissue with significant up-regulation of TARDBP (the gene expresses TDP-43 protein) and SQTM1 (Sequestosome-1) gene expression.14 Therefore, we planned to measure blood-derived platelet total TDP-43 and pTDP-43 as surrogate biomarker for skeletal muscle TDP-43 profile of IBM patients. […] Secondary outcome measures included multiple strength and functional measures: manual muscle testing, timed up and go test (TUG), IBM functional rating scale (IBMFRS), and grip strength. These clinical outcome measures were commonly used in evaluating progression of IBM and in clinical trials of this disease.^18,19,20,21 In addition, safety laboratory tests and electrocardiogram would be monitored regularly. As mentioned above, the biomarkers would be repeated at the end of the treatment period. The PBA was administered orally at 3 gm doses twice a day. […] Mildly elevated liver enzyme reported in two subjects at baseline and before the treatment period. The most common adverse events which were considered related were GI symptoms (n=9). […] The safety lab tests for monitoring purposes include: Liver enzyme (ALT), renal function test (creatinine), muscle enzyme (creatine kinase) and blood counts (including WBC and platelets). For the primary outcome of safety, the frequency of Adverse Events (AEs) and Serious Adverse Events (SAEs) by grade, would be reported. This would be done for each follow-up visit as well as for all visits combined.
# [2] = test system: cultured human muscle fibers; conditions: Nogalska et al. 2014, cited from earlier work
# [3] = AE considered possibly or probably related, 3 gm orally twice a day, 3 months
# [4] = AE considered unrelated, at baseline before the treatment period
# [5] = gastrointestinal AE considered possibly or probably related, 3 gm orally twice a day, 3 months
# [6] = cultured human muscle fibers with experimentally-impaired autophagy
# [7] = lysosomal activity-inhibited CHMFs
substance,measurement,setting,value
phenylbutyrate [PBA],Number of occurrences: Drowsiness,[1]; [3],1
same,Number of occurrences: Gastrointestinal AEs,[1]; [3],9
same,Number of occurrences: Hair Loss,[1]; [3],1
same,Number of occurrences: Musculoskeletal Pain,[1]; [3],2
same,Number of occurrences: Nasal Congestion,[1]; [3],1
same,Number of occurrences: Tremor,[1]; [3],1
same,Number of occurrences: Two Itchy Skin Lesions,[1]; [3],1
same,Number of subjects: Drowsiness,[1]; [3],1
same,Number of subjects: Gastrointestinal AEs,[1]; [3],9
same,Number of subjects: Hair Loss,[1]; [3],1
same,Number of subjects: Musculoskeletal Pain,[1]; [3],2
same,Number of subjects: Nasal Congestion,[1]; [3],1
same,Number of subjects: Tremor,[1]; [3],1
same,Number of subjects: Two Itchy Skin Lesions,[1]; [3],1
same,Number of subjects: Hair Loss,"[1]; AE considered possibly or probably related, 3 gm orally twice a day, 3 months, listed as study drug",One subject had hair loss which was considered possibly related
same,Number of occurrences: Back Pain,[1]; AE considered unrelated,1
same,Number of occurrences: Chills,[1]; AE considered unrelated,1
same,Number of occurrences: Elevated White Blood Count,[1]; AE considered unrelated,1
same,Number of occurrences: Elevated blood pressure,[1]; AE considered unrelated,2
same,Number of occurrences: Falls,[1]; AE considered unrelated,9
same,Number of occurrences: Headache,[1]; AE considered unrelated,1
same,Number of occurrences: Low blood pressure,[1]; AE considered unrelated,1
same,Number of occurrences: Numbness in the Legs,[1]; AE considered unrelated,1
same,Number of occurrences: Right Bundle Branch Block,[1]; AE considered unrelated,1
same,Number of occurrences: Urinary Urgency,[1]; AE considered unrelated,2
same,Number of subjects: Back Pain,[1]; AE considered unrelated,1
same,Number of subjects: Chills,[1]; AE considered unrelated,1
same,Number of subjects: Elevated White Blood Count,[1]; AE considered unrelated,1
same,Number of subjects: Elevated blood pressure,[1]; AE considered unrelated,2
same,Number of subjects: Falls,[1]; AE considered unrelated,6
same,Number of subjects: Headache,[1]; AE considered unrelated,1
same,Number of subjects: Low blood pressure,[1]; AE considered unrelated,1
same,Number of subjects: Numbness in the Legs,[1]; AE considered unrelated,1
same,Number of subjects: Right Bundle Branch Block,[1]; AE considered unrelated,1
same,Number of subjects: Urinary Urgency,[1]; AE considered unrelated,2
same,Number of occurrences: Elevated liver enzymes,[1]; [4],2
same,Number of subjects: Elevated liver enzymes,[1]; [4],2
same,Serious events not related to the study drug,[1],"the only serious event reported (a fall) was related to the disease itself, not the study drug"
same,Serious adverse events related to the study drug,[1],no serious adverse events related to the study drug were reported
same,Serious adverse events related to the study drug,[1]; listed as study drug,No study drug-related serious events were reported
same,Safety and tolerability,[1],safe and well-tolerated
same,Safety and tolerability,[1]; listed as Phenylbutyrate,safe and well tolerated
same,Safety and tolerability,[1]; listed as study drug,well tolerated
same,Serious events not related to the study drug,[1]; listed as study drug,one serious event (a fall that required a hospital visit) that was not related to the study drug
same,"Safety laboratory tests (ALT, creatinine, creatine kinase, blood counts)",[1],indicates safety for the PBA administration
same,"Safety laboratory tests (ALT, creatinine, creatine kinase, blood counts)",[1]; listed as study drug,No other significant laboratory changes were noted
same,Number of occurrences: Constipation,[1]; [5],1
same,Number of occurrences: Heartburn,[1]; [5],4
same,Number of occurrences: Nausea,[1]; [5],2
same,Number of occurrences: Oral Aphthous,[1]; [5],1
same,Number of occurrences: Urgency,[1]; [5],1
same,Number of subjects: Constipation,[1]; [5],1
same,Number of subjects: Heartburn,[1]; [5],4
same,Number of subjects: Nausea,[1]; [5],2
same,Number of subjects: Oral Aphthous,[1]; [5],1
same,Number of subjects: Urgency,[1]; [5],1
same,Number of occurrences: Strep. Throat Infection,"[1]; human, in vivo",1
same,Number of subjects: Strep. Throat Infection,"[1]; human, in vivo",1
same,Aβ42 and Aβ42 oligomers,[2]; [6],decreases Aβ42 and Aβ42 oligomers
same,Muscle-fiber vacuolization,[2]; [6],decreasing their vacuolization
same,γ-secretase activity,[2]; [6],decreases γ-secretase activity
same,Cathepsins D and B activities,[2]; [7],increased cathepsins D and B activities
same,"NBR1, p62 and LC3-II",[2]; [7],"decrease of NBR1, p62 and LC3-II"
